Measured values: patent US6773705B1, “Methods for diagnosing and treating autoimmune disease” (General Hospital Corporation, priority 1998, dated 2004)
Square brackets hold non-standard residues; d marks the D form. Peptide text beside a SMILES is read from it. * marks the point of attachment. Nva = CCC[C@H](N)C(=O)O; Cbz = O=C(OCc1ccccc1)*

Key:
[1] = biological target: T1, NFκBp65-associated protein kinase (cytosolic); experiment: In vitro kinase assay, GST-CTD phosphorylation by GST-NFκBp65-precipitated complexes from Molt-4 cytosolic extract; assay type: biochemical, human; conditions: GST-CTD substrate, FIG. 1C
T1 construct: other: cytosolic; GST-C
Description: (§2) GST-NFκp65 and GST-CTD were expressed in BL21 pLysS E. Coli cells and purified by selective absorption to glutathione sepharose beads. GST-NFκBp65 was incubated with Molt-4 cytosolic and nuclear extracts, prepared as described above. Reaction mixtures were washed in PBS. The precipitated complexes were then incubated with GST-CTD of RNA polymerase II large subunit in kinase buffer containing γ-[^32P]ATP as previously described (Hayashi et al., 1993, J. Biol. Chem., 268: 26790-26795; Faustman et al., 1989, Diabetes, 38: 1462-1468). One-fortieth of the input (I) and supernatant (S) fractions and 1/40 of the last wash (W) and pellet (P) fractions were used for in vitro kinase reaction. Protein complexes were collected by brief centrifugation, washed and then incubated with GST-CTD substrates in kinase buffer containing y-^32P ATP. The products of the in vitro kinase reactions were then analyzed on SDS-PAGE. […] To determine whether the kinase activity of NFκBp65-associated protein kinase were sensitive to DRB, the ability of DRB to inhibit the kinase activity of NFκBp65 association protein kinase was tested by examining the phosphorylation of CTD in the presence of different concentrations of DRB. […] Quantitation of the gel shown in FIG. 1C with an image analyzer (a BAS 3000 phosphorimager) was plotted on a graph. […]

[2] = biological target: NFκBp65-associated protein kinase (nuclear); assay type: biochemical, human; conditions: GST-CTD substrate, FIG. 1C
Description: as §2

20S proteasome [3] = conditions: MG115 50 μM; Palombella et al., 1994; cited from earlier work
proteasome = experiment: In vitro p105 processing assay with cytoplasmic extracts of T1, T2, Molt-4 and Jurkat cells; assay type: biochemical; conditions: 50 μg MG115; cell line cytoplasmic extracts; FIG. 12G
Description: The labeled p105 was incubated with the cytosolic extracts of these cell lines (20 or 40 μg of protein at left and center) and the reaction mixtures were incubated with (center; FIGS. 12E, F and G) or without (upper; FIGS. 12E, F and G) 10 mM ATP in a wheat germ extract system (Promega) as above. Incubations were also performed in the absence (−) or presence (+) of 50 μg MG115 (lower; FIGS. 12E, F and G). Lane 1 in all gels presented in FIGS. 12E, F and G corresponds to reaction mixtures without substrate. Incubations were performed at 30° C. for 90 minutes, after which the reaction mixtures were analyzed by SDS-PAGE and autoradiography. […] When p105 was incubated with the cytoplasmic extracts of T1 cells, Molt-4 cells and Jurkat cells in the presence of 10 mM ATP, the mature p50 was detected (FIG. 12F); however, the p50 was not generated by incubation of p105 with the cytoplasmic extracts prepared from T2 cells in the presence of 10 mM ATP (FIG. 12F, lanes 4 and 5). To verify that the maturation processing of p50 in the in vitro reaction was mediated by the proteasome processing pathway, the effect of MG115 on proteasome function was examined.

20S proteasome [4] = experiment: In vitro p105/p60Tth processing assay with mouse spleen cytosolic extracts; assay type: biochemical; conditions: MG115 50 μM, FIG. 12A, 12B right
Description: To investigate whether the altered abundance of p50 in NOD mouse spleen cells could be attributable to defective processing of p105 by the proteasome, the processing of p105 by cytosolic extracts of NOD mouse spleen cells was examined using recombinant p105 or the truncated version p60Tth as substrates. The in vitro p105 processing assay reaction was performed as previously described (Fan and Maniatis, 1991, supra). In brief, p105 and p60Tth expression constructs were subjected to in vitro transcription and translation in a wheat germ extract system (Promega) in the presence of [^35S]methionine. The ^35S-labeled p105 and p60th proteins were immunoprecipitated with polyclonal antibodies to p50 and purified for use as substrates. Each substrate protein was incubated for 90 minutes at 30° C. with spleen cytosolic extract (20 or40 μg of protein) in a final volume of 25 μl in the absence or presence of 10 mM ATP (Palombella et al., 1994, supra). The proteasome inhibitor MG115 was also added to the reaction mixture where indicated (FIG. 12). The processed proteins were separated by SDS-polyacrylamide gel electrophoresis (PAGE) on a 10% gel and visualized by autoradiography. […] When p60Tth was incubated with cytosolic extracts of BALB/c cells in the presence of […], mature p50 was generated (FIG. 12A, center). […]

spleen cells = experiment: TNF-α cytotoxicity of spleen cells (viable cell count, DNA fragmentation); assay type: cell-based, mouse
Description: One critical function of NFκB is to provide protection to cells from the effects of exogenous TNF-α. […] Spleen cells were cultured for 24 hours after exposure to various concentrations (2, 5, 10 or 20 ng/ml) of TNF-α, as indicated on the X axis of the figure. Viable cells remaining after TNF-α treatment are shown as a percentage of viable control (untreated) cells. Standard deviations were calculated from four independent readings within a single experiment. The survival over time of cells treated with TNF-α is charted in FIG. 13B. Spleen cells were treated with TNF-α (10 ng/ml), and viable cells were counted at various times following treatment as indicated on the X axis of the figure.
(§1) DNA fragmentation was evaluated and detected by agarose gel electrophoresis after spleen cells were cultured in 10 ng/ml TNF-α for 24 hours. […] Embryonic fibroblasts prepared from BALB/c and NOD mice were cultured DMEM containing 10% fetal bovine serum and then incubated with various concentrations of TNF-α for 24 hours (FIG. 13D, top) or with TNF-α at 10 ng/ml for the indicated times (FIG. 13D, bottom). Cell viability was assessed by trypan blue exclusion. Data are means±SD of four replicates from a representative experiment, and are expressed as a percentage of the survival value for the corresponding cells not exposed to TNF-α.

NF-κB [5] = experiment: EMSA of NF-κB DNA-binding activity in nuclear extracts of TNF-α-treated spleen cells; conditions: NOD mouse spleen cells (male and female); TNF-α 10 ng/ml, 4 hours; FIG. 8A
Description: In order to assess the influence of TNF-α on NFκB in an in vitro system, a DNA/protein binding assay was undertaken. Nuclear extracts were prepared from BALB/C and NOD mice by methods described above. The binding activities were examined by EMSA with ^32P end-labeled oligonucleotide containing an NFκB recognition sequence. Spleen cells were stimulated with TNF-α treatment (10 ng/ml;+) or without TNF-α treatment (−) and nuclear extracts from the treated cells were prepared 4 hours later. Nuclear extract prepared from spleen cells of BALB/C (lanes 2-5; FIG. 8A) and NOD (lanes 6-9; FIG. 8A) mice and Molt-4 cells (lanes 10 and 11; FIG. 8A) were incubated with DNA probe as follows:
Double-stranded κB wt, κB mut or IL-R2α κB oligonucleotides were end-labeled using [α-^32P]dCTP and Klenow polymerase. Binding reactions of the DNA probe with nuclear extracts were performed at 37° C. for minutes in a total volume of 10 μl of buffer containing 10 mM Hepes (H 7.9), 50 mM KCl, 5 mM Tris-HCl (pH 7.0), 1 mM DTT, 15 mM EDTA, 10% (v/v) glycerol, 1.0 μg of poly (dI.dC), and 4 ng of the labeled probe. The DNA-protein complexes were resolved on nondenaturing 8% polyacrylamide gels. Electrophoresis was performed with 0.5×TBE buffer (4.5 mM Tris-HCl, 4.5 mM boric acid, 0.1 mM EDTA) at 4° C. A negative binding control, to which no nuclear extract was added, was run in lane 1. […]

IκBα = experiment: Immunoblot of cytosolic IκBα in TNF-α-treated spleen lymphocytes; assay type: cell-based, mouse; conditions: TNF-α 10 ng/ml, FIG. 10B
Description: The basal expression of NF-κB subunits, IκBa and cyclin-dependent kinases was examined by immunoblot analysis of cytosolic and nuclear extracts of male (M) or female (F) BALB/c and NOD mouse spleen cells (FIG. 10). In these experiments, extracts of spleen cells were subjected to SDS-PAGE on a 12.5% gel under non-reducing conditions. The separated proteins were transferred electrophoretically to a polyvinylidene difluoride (PVDF) membrane which was then incubated for 2 hours at room temperature with TBS-T (20 mM Tris-HCl, pH 7.6; 137 mM NaCl; 0.05% volume/volume Tween 20) containing 8% (weight/volume) bovine serum albumin. The membrane was then incubated for 12 h at 4° C. with TBS-T containing the appropriate polyclonal antibodies, washed 4×5 minutes with TBS-T at room temperature, incubated for 2 hours at room temperature with TBS-T containing alkaline phosphatase-conjugated secondary antibodies, washed five times with TBS-T and subjected to the alkaline phosphatase color reaction. […]
To assess the dynamics of IκBα protein expression occurring during lymphocyte activation by TNF-α treatment, subcellular fractions from lymphocytes derived from BALB/c and NOD spleen were treated with 10 ng/ml TNF-α. […] IκBα protein was readily detected in the cytosolic extracts from both unstimulated lymphocytes, BALB/c and NOD. […]

[6] = test system: mouse embryonic fibroblasts (MEF); experiment: TNF-α cytotoxicity of embryonic fibroblasts (trypan blue exclusion); assay type: cell-based; conditions: NOD MEF; various TNF-α concentrations 24 hours or 10 ng/ml over time; FIG. 13D
Description: as §1

NF-κB [7] = experiment: EMSA of nuclear NF-κB DNA-binding activity in TNF-α-treated cell lines; assay type: cell-based; conditions: TNF-α 10 ng/ml, 4 h, FIG. 11A
Description: Furthermore, in the […] cell line, in which Lmp2 and Lmp7 genes have been deleted, NF-κB is not activated in response to TNF-α. The effect of TNF-α treatment on the DNA-binding activity of nuclear NF-κB was examined (FIG. 11). EMSA was performed such that cell extracts from mutant T2 cells compared to those of control T1 cells, Molt-4 cells and Jurkat cells after stimulation for 4 h in the absence (−) or presence (+) of 10 ng/ml TNF-α.
-unlabeled oligonucleotide (κB1). Double-stranded oligodeoxynucleotides were synthesized on a DNA synthesizer by the phosphoramidite method and purified on an OPC cartridge. […] The DNA-protein complexes were resolved by electrophoresis on nondenaturing 8% polyacrylamide gels with 0.5×TBE (Tris-borate-EDTA) buffer at 4° C. For competition experiments, nuclear extracts was incubated for […] at 4° C. with a 100-fold molar excess of unlabeled κB oligonucleotide before addition of the radioactive probe. Cytosolic extracts were treated with 1.2% NP-40 and 0.8% deoxycholate to dissociate IκB from NF-κB before incubation with 3^2P-labeled probe. For supershift assays, nuclear extracts were incubated with specific antibodies in 1 hour at 4° C. before addition of DNA probes. Lanes 1 correspondes to negative controls in which nuclear extract was not added.

## OC[C@H]1O[C@@H](n2cnc3cc(Cl)c(Cl)cc32)[C@H](O)[C@@H]1O [DRB, 5,6-dichloro-1-β-D-ribofuranosylbenzimidazole]
[1]
  concentration required for 50% inhibition of the activity of NFκBp65-associated protein kinase: 10 µM
[2]
  concentration required for 50% inhibition of the activity of NFκBp65-associated protein kinase: 1 µM

## CCC[C@@H](C=O)NC(=O)[C@H](CC(C)C)NC(=O)[C@H](CC(C)C)NC(=O)OCc1ccccc1 [MG115] (Cbz-Leu-Leu-[Nva]-aldehyde)
20S proteasome [3]
  processing of p105: prevent the processing of p105
proteasome
  p105 processing to p50: clearly resulted in defective p105 processing
20S proteasome [4]
  processing of p105 and p60Tth: completely inhibited

## TNF-α
Spleen cells; NOD but not BALB/c spleen cells, TNF-α 10 ng/ml, 24 hours, FIG. 13C
  DNA fragmentation by agarose gel electrophoresis: resulted in apoptosis
Spleen cells; NOD spleen cells, TNF-α 2-20 ng/ml, 24 hours, or 10 ng/ml over time, FIG. 13A, 13B
  toxicity, cell survival: toxic
NF-κB [5]
  NF-κB activation: only slightly induced
IκBα; BALB/c lymphocytes
  time to disappearance of cytosolic IκBα: ≤ 40 min
IκBα; NOD lymphocytes
  cytosolic IκBα during TNF-α treatment: clearly detected after 40 minutes of stimulation and then stably expressed
[6]
  cellular toxicity: no cellular toxicity
NF-κB [7]; T1, Molt-4 and Jurkat cells
  expression of the active nuclear form of NF-κB on EMSA: markedly detected
NF-κB [7]; T2 cells (Lmp2, Lmp7 deleted)
  NF-κB activity: not induced
